# According to US20260242372A1, “NOVEL IMIDAZOPYRIDINE AND PYRAZOLOPYRIDINE SULFONAMIDE DERIVATIVES” (Hoffmann-La Roche Inc., priority 2022, published 2026):
# Molecular target: human GPR17 short isoform (Homo sapiens, UniProt Q13304)
# Assay: GPR17 cAMP assay (hGPR17 cAMP, TR-FRET, antagonist mode)
# Assay type: cell-based
# Conditions: CHO-K1 cells stably expressing human GPR17 short isoform; EC80 of agonist MDL29,951; forskolin 15 μM; 30 min at room temperature
# Description: CHO-K1 cells stably expressing vector containing untagged human GPR17 short isoform (Roche) were cultured at 37° C./5% CO2 in DMEM (Dulbecco's Modified Eagle Medium): F-12 (1:1) supplemented with 10% foetal bovine serum and 400 μg/ml Geneticin.
# Changes in intracellular cyclic adenosine monophosphate (cAMP) levels were quantified using the Nano-TRF Detection Assay kit (Roche Diagnostics, Cat. No. 05214386001). This assay allows for direct cAMP quantification in a homogeneous solution. CAMP is detected based on time-resolved fluorescence energy transfer (TR-FRET) and competitive binding of ruthenylated cAMP and endogenous cAMP to an anti-cAMP monoclonal antibody labeled with AlexaFluor-700. The Ruthenium complex serves as the FRET donor and transfers energy to AlexaFluor-700. The FRET signal is inversely proportional to the CAMP concentration.
# CHO-GPR17S cells were detached with Accutase and resuspended in assay buffer consisting of Hank's Balanced Salt Solution (HBSS), 10 mM HEPES (4-(2-hydroxyethyl) piperazine-1-ethanesulfonic acid solution) and 0.1% bovine serum albumin (pH 7.4). The cells were seeded in black 384-well plates (Corning) at a density of 10′000 cells/20 μl assay buffer until the addition of compounds.
# Test antagonist compounds were serially diluted in dimethyl sulfoxide (DMSO) and spotted in 384-well plates. The compounds were then diluted in HBSS buffer supplemented with an EC80 concentration of MDL29,951 (3-(2-Carboxy-4,6-dichloroindol-3-yl) propionic acid) (GPR17 agonist) plus 3-Isobutyl-1-methylxanthine (IBMX) (0.5 mM final concentration) and added to the cells at room temperature. Forskolin (15 μM final concentration) was added 5 minutes after the test compounds and the cells were incubated at room temperature for 30 minutes. The assay was stopped by adding cAMP detection mix (containing detergents for cell lysis) for 90 minutes at room temperature.
# Cellular cAMP was measured using a Paradigm reader (Molecular Devices). The raw data was used to calculate the FRET signal based on the assay's P-factor as per cAMP kit instructions. The data was normalized to the maximal activity of a reference antagonist and dose response curves were fitted to the percent activity of the test compounds using a sigmoidal dose response model (Genedata Screener).
# Chain of human GPR17 short isoform (Q13304 29-367): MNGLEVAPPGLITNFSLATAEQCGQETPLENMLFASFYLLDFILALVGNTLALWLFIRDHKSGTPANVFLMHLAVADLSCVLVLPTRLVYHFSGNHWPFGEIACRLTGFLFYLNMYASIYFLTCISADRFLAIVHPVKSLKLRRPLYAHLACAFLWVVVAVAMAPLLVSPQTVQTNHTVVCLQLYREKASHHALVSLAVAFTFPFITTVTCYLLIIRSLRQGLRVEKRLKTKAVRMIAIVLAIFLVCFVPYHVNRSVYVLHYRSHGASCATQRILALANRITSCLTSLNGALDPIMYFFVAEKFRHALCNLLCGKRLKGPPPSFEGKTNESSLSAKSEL
row,Compound,IC50
1,"COc1nc(OCC(F)F)c(F)cc1NS(=O)(=O)c1cnc2n1CCCC2C (centres unmarked) [Example 50, N-[6-(2,2-difluoroethoxy)-5-fluoro-2-methoxy-3-pyridyl]-8-methyl-5,6,7,8-tetrahydroimidazo[1,2-a]pyridine-3-sulfonamide]",0.098 µM
2,"COc1ccn2c(S(=O)(=O)Nc3cc(F)c(CC#N)cc3F)cnc2c1 [Example 55, N-[4-(cyanomethyl)-2,5-difluoro-phenyl]-7-methoxy-imidazo[1,2-a]pyridine-3-sulfonamide]",0.116 µM
3,"O=S(=O)(Nc1cc(F)c(OC(F)F)nc1OC(F)F)c1cnc2nc(C3CC3)ccn12 [Example 56, N-[2,6-bis(difluoromethoxy)-5-fluoro-3-pyridyl]-7-cyclopropyl-imidazo[1,2-a]pyrimidine-3-sulfonamide]",0.132 µM
4,"COc1nc(OCC(F)F)c(F)cc1NS(=O)(=O)c1cnc2cc(C#N)ccn12 [Example 59, 7-cyano-N-[6-(2,2-difluoroethoxy)-5-fluoro-2-methoxy-3-pyridyl]imidazo[1,2-a]pyridine-3-sulfonamide]",0.176 µM
5,"COc1c(Cl)ccn2c(S(=O)(=O)Nc3cc(F)c(CC#N)cc3F)cnc12 [Example 61, 7-chloro-N-[4-(cyanomethyl)-2,5-difluoro-phenyl]-8-methoxy-imidazo[1,2-a]pyridine-3-sulfonamide]",0.181 µM
6,"COc1nc(OCC(F)F)c(F)cc1NS(=O)(=O)c1cnc2n1CCC(OC)C2 (centres unmarked) [Example 62, N-[6-(2,2-difluoroethoxy)-5-fluoro-2-methoxy-3-pyridyl]-7-methoxy-5,6,7,8-tetrahydroimidazo[1,2-a]pyridine-3-sulfonamide]",0.217 µM

# Continued by falling IC50, values first:
row,IC50,Compound
1,0.179 µM,"COc1ccn2c(S(=O)(=O)Nc3cc(F)c(OCC(F)F)nc3OC)cnc2c1C#N [Example 60, 8-cyano-N-[6-(2,2-difluoroethoxy)-5-fluoro-2-methoxy-3-pyridyl]-7-methoxy-imidazo[1,2-a]pyridine-3-sulfonamide]"
2,0.174 µM,"COc1nc(OCC(F)F)c(F)cc1NS(=O)(=O)c1cnc2c(=O)n(C)ccn12 [Example 58, N-[6-(2,2-difluoroethoxy)-5-fluoro-2-methoxy-3-pyridyl]-8-keto-7-methyl-imidazo[1,2-a]pyrazine-3-sulfonamide]"
3,0.137 µM,"COc1c(C)ccn2c(S(=O)(=O)Nc3cc(F)c(Br)cc3F)cnc12 [Example 57, N-(4-bromo-2,5-difluoro-phenyl)-8-methoxy-7-methyl-imidazo[1,2-a]pyridine-3-sulfonamide]"
4,0.112 µM,"COc1nc(NS(=O)(=O)c2cnc3cc(C)ccn23)nc(OC)c1C [Example 54, N-(4,6-dimethoxy-5-methyl-pyrimidin-2-yl)-7-methyl-imidazo[1,2-a]pyridine-3-sulfonamide]"
5,0.101 µM,"COc1nc(OCC(F)F)c(F)cc1NS(=O)(=O)c1cnc2n1CCC(C)O2 (centres unmarked) [Example 53, N-[6-(2,2-difluoroethoxy)-5-fluoro-2-methoxy-3-pyridyl]-7-methyl-6,7-dihydro-5H-imidazo[2,1-b][1,3]oxazine-3-sulfonamide]"
6,0.099 µM,"COc1nc(NS(=O)(=O)c2cnc3cc(Cl)ccn23)c(F)cc1OCC(F)F [Example 51, 7-chloro-N-[5-(2,2-difluoroethoxy)-3-fluoro-6-methoxy-2-pyridyl]imidazo[1,2-a]pyridine-3-sulfonamide]"
7,0.099 µM,"COc1nc(OCC(F)F)c(F)cc1NS(=O)(=O)c1cnc2c(C#N)c(Cl)ccn12 [Example 52, 7-chloro-8-cyano-N-[6-(2,2-difluoroethoxy)-5-fluoro-2-methoxy-3-pyridyl]imidazo[1,2-a]pyridine-3-sulfonamide]"
8,0.089 µM,"COc1nc(NS(=O)(=O)c2cnc3nc(C4CC4)ccn23)c(F)cc1OCC(F)F [Example 49, 7-cyclopropyl-N-[5-(2,2-difluoroethoxy)-3-fluoro-6-methoxy-2-pyridyl]imidazo[1,2-a]pyrimidine-3-sulfonamide]"
